Experimental data reported in patent US9708308B2, “Factor IXa inhibitors” (Merck Sharp & Dohme Corp., priority 2012, dated 2017).

molecular target: Factor IXa (Homo sapiens, UniProt P00740); test: Determination of inhibitory activity against Factor IXa (cleavage of fluorescent peptide substrate); format: biochemical; settings: cleavage of fluorescent peptide CH3SO2-D-CHG-Gly-Arg-AFC, release of AFC; read-out: FIXa IC50
Outline: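 Factor IXa activity followed via cleavage of CH3SO2-D-CHG-Gly-Arg-AFC, releasing AFC. Fluorescence read at excitation 405 nm, emission 510 nm.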

Sequence of Factor IXa (P00740 227-461 limits assumed): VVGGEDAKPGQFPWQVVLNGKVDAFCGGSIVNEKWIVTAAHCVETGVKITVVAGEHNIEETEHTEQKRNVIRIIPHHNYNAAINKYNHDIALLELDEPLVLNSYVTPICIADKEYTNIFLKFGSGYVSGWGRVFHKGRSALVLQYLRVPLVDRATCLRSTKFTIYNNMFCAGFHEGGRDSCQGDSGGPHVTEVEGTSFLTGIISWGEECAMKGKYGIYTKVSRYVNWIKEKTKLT
Sequence of Factor IXa (P00740 47-191 partner limits assumed): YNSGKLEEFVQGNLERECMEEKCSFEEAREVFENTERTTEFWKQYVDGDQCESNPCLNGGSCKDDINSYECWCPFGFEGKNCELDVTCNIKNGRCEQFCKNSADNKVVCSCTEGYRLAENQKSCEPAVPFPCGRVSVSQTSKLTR

| SMILES | IC50 [µM] |
| --- | --- |
| C[C@](O)(C(=O)Nc1cc(F)c2c(N)noc2c1)[C@H]1OCCN(c2ccn(-c3ccncc3)n2)C1=O [Example 129, (R)—N-(3-amino-4-fluorobenzo[d]isoxazol-6-yl)-2-hydroxy-2-((R)-3-oxo-4-(1-(pyridin-4-yl)-1H-pyrazol-3-yl)morpholin-2-yl)propanamide] | 0.0498 |
| Cc1cc(-n2ccc(N3CCO[C@H]([C@@](C)(O)C(=O)Nc4cc(F)c5c(N)noc5c4)C3=O)n2)ccn1 [Example 130, (R)—N-(3-amino-4-fluorobenzo[d]isoxazol-6-yl)-2-hydroxy-2-((R)-4-(1-(2-methylpyridin-4-yl)-1H-pyrazol-3-yl)-3-oxomorpholin-2-yl)propanamide] | 0.211 |
| C[C@](O)(C(=O)Nc1cc(F)c2c(N)noc2c1)[C@H]1OCCN(c2ccn(-c3ccnc(C(F)(F)F)c3)n2)C1=O [Example 131, (R)—N-(3-amino-4-fluorobenzo[d]isoxazol-6-yl)-2-hydroxy-2-((R)-3-oxo-4-(1-(2-(trifluoromethyl)pyridin-4-yl)-1H-pyrazol-3-yl)morpholin-2-yl)propanamide] | 0.0952 |
| C[C@](O)(C(=O)Nc1cc(F)c2c(N)noc2c1)[C@H]1OCCN(c2ccn(-c3ccnc(C#N)c3)n2)C1=O [Example 132, (R)—N-(3-amino-4-fluorobenzo[d]isoxazol-6-yl)-2-((R)-4-(1-(2-cyanopyridin-4-yl)-1H-pyrazol-3-yl)-3-oxomorpholin-2-yl)-2-hydroxypropanamide] | 0.117 |
| COc1cc(-n2ccc(N3CCO[C@H]([C@@](C)(O)C(=O)Nc4cc(F)c5c(N)noc5c4)C3=O)n2)ccn1 [Example 133, (R)—N-(3-amino-4-fluorobenzo[d]isoxazol-6-yl)-2-hydroxy-2-((R)-4-(1-(2-methoxypyridin-4-yl)-1H-pyrazol-3-yl)-3-oxomorpholin-2-yl)propanamide] | 0.275 |
| C[C@](O)(C(=O)Nc1cc(F)c2c(N)noc2c1)[C@H]1OCCN(c2nn(-c3ccncc3)cc2F)C1=O [Example 134, (R)—N-(3-amino-4-fluorobenzo[d]isoxazol-6-yl)-2-((R)-4-(4-fluoro-1-(pyridin-4-yl)-1H-pyrazol-3-yl)-3-oxomorpholin-2-yl)-2-hydroxypropanamide] | 0.0552 |
| C[C@](O)(C(=O)Nc1cc(F)c2c(N)noc2c1)[C@H]1OCCN(c2ccn(-c3ccnnc3)n2)C1=O [Example 135, (R)—N-(3-amino-4-fluorobenzo[d]isoxazol-6-yl)-2-hydroxy-2-((R)-3-oxo-4-(1-(pyridazin-4-yl)-1H-pyrazol-3-yl)morpholin-2-yl)propanamide] | 0.0102 |
| C[C@](O)(C(=O)Nc1cc(F)c2c(N)noc2c1)[C@H]1OCCN(c2ccn(-c3cnnc(N4CCC4)c3)n2)C1=O [Example 136, (R)—N-(3-amino-4-fluorobenzo[d]isoxazol-6-yl)-2-((R)-4-(1-(6-(azetidin-1-yl)pyridazin-4-yl)-1H-pyrazol-3-yl)-3-oxomorpholin-2-yl)-2-hydroxypropanamide] | 0.0532 |
| CC(C)Oc1cc(-n2ccc(N3CCO[C@H]([C@@](C)(O)C(=O)Nc4cc(F)c5c(N)noc5c4)C3=O)n2)cnn1 [Example 137, (R)—N-(3-amino-4-fluorobenzo[d]isoxazol-6-yl)-2-hydroxy-2-((R)-4-(1-(6-isopropoxypyridazin-4-yl)-1H-pyrazol-3-yl)-3-oxomorpholin-2-yl)propanamide] | 0.19 |
| C[C@](O)(C(=O)Nc1cc(F)c2c(N)noc2c1)[C@H]1OCCN(c2ccn(-c3cnnc(C#N)c3)n2)C1=O [Example 138, (R)—N-(3-amino-4-fluorobenzo[d]isoxazol-6-yl)-2-((R)-4-(1-(6-cyanopyridazin-4-yl)-1H-pyrazol-3-yl)-3-oxomorpholin-2-yl)-2-hydroxypropanamide] | 0.00711 |
| COc1cc(-n2ccc(N3CCO[C@H]([C@@](C)(O)C(=O)Nc4cc(F)c5c(N)noc5c4)C3=O)n2)cnn1 [Example 139, (R)—N-(3-amino-4-fluorobenzo[d]isoxazol-6-yl)-2-hydroxy-2-((R)-4-(1-(6-methoxypyridazin-4-yl)-1H-pyrazol-3-yl)-3-oxomorpholin-2-yl)propanamide] | 0.014 |
| C[C@](O)(C(=O)Nc1cc(F)c2c(N)noc2c1)[C@H]1OCCN(c2nn(-c3ccnnc3)cc2F)C1=O [Example 140, (R)—N-(3-amino-4-fluorobenzo[d]isoxazol-6-yl)-2-((R)-4-(4-fluoro-1-(pyridazin-4-yl)-1H-pyrazol-3-yl)-3-oxomorpholin-2-yl)-2-hydroxypropanamide] | 0.00561 |
| COc1nccc(-n2ccc(N3CCO[C@H]([C@@](C)(O)C(=O)Nc4cc(F)c5c(N)noc5c4)C3=O)n2)n1 [Example 141, (R)—N-(3-amino-4-fluorobenzo[d]isoxazol-6-yl)-2-hydroxy-2-((R)-4-(1-(2-methoxypyrimidin-4-yl)-1H-pyrazol-3-yl)-3-oxomorpholin-2-yl)propanamide] | 0.107 |
| C[C@]1([C@@H](O)C(=O)Nc2cc(F)c3c(N)noc3c2)OCCN(c2ccn(-c3ccnnc3)n2)C1=O [Example 142, (R)—N-(3-amino-4-fluorobenzo[d]isoxazol-6-yl)-2-hydroxy-2-((R)-2-methyl-3-oxo-4-(1-(pyridazin-4-yl)-1H-pyrazol-3-yl)morpholin-2-yl)acetamide] | 0.00627 |
| COc1nccc(-n2ccc(N3CCO[C@](C)([C@@H](O)C(=O)Nc4cc(F)c5c(N)noc5c4)C3=O)n2)n1 [Example 143, (R)—N-(3-amino-4-fluorobenzo[d]isoxazol-6-yl)-2-hydroxy-2-((R)-4-(1-(2-methoxypyrimidin-4-yl)-1H-pyrazol-3-yl)-2-methyl-3-oxomorpholin-2-yl)acetamide] | 0.0221 |
| C[C@](O)(C(=O)Nc1cnc2c(N)noc2c1)[C@H]1OCCN(c2ccn(-c3ccncc3)n2)C1=O [Example 144, (R)—N-(3-aminoisoxazolo[4,5-b]pyridin-6-yl)-2-hydroxy-2-((R)-3-oxo-4-(1-(pyridin-4-yl)-1H-pyrazol-3-yl)morpholin-2-yl)propanamide] | 0.458 |
| COc1cc(-n2ccc(N3CCO[C@H]([C@@](C)(O)C(=O)Nc4ccc5[nH]c(C)c(Cl)c5c4)C3=O)n2)ccn1 [Example 145, (R)—N-(3-chloro-2-methyl-1H-indol-5-yl)-2-hydroxy-2-((R)-4-(1-(2-methoxypyridin-4-yl)-1H-pyrazol-3-yl)-3-oxomorpholin-2-yl)propanamide] | 1.1 |
| Cc1[nH]c2ccc(NC(=O)[C@](C)(O)[C@H]3OCCN(c4ccn(-c5ccnnc5)n4)C3=O)cc2c1Cl [Example 146, (R)—N-(3-chloro-2-methyl-1H-indol-5-yl)-2-hydroxy-2-((R)-3-oxo-4-(1-(pyridazin-4-yl)-1H-pyrazol-3-yl)morpholin-2-yl)propanamide] | 0.0281 |
| C[C@](O)(C(=O)Nc1ccc2c(N)noc2c1)[C@@]1(C)OCCN(c2ccn(-c3ccnnc3)n2)C1=O [Example 148, (R)—N-(3-Aminobenzo[d]isoxazol-6-yl)-2-hydroxy-2-((R)-2-methyl-3-oxo-4-(1-(pyridazin-4-yl)-1H-pyrazol-3-yl)morpholin-2-yl)propanamide] | 0.0626 |
| COc1cc(-n2ccc(N3CCO[C@](C)([C@@](C)(O)C(=O)Nc4ccc5c(N)noc5c4)C3=O)n2)cnn1 [Example 149, (R)—N-(3-aminobenzo[d]isoxazol-6-yl)-2-hydroxy-2-((R)-4-(1-(6-methoxypyridazin-4-yl)-1H-pyrazol-3-yl)-2-methyl-3-oxomorpholin-2-yl)propanamide] | 0.0924 |
